Measurements published in ChEMBL document CHEMBL1201862, “PubChem BioAssay data set” (2004).
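Where inhibition never reached the appropriate level, the endpoint shown equals the highest concentration tested. Otherwise, values were interpolated linearly from a five-concentration, 48-hour dose response in 96-well plates. GI50 is the concentration that inhibits growth by half.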 Activity calls are given as the source filed them. Rule as the data show it: active = GI50 up to about 1.1 µM and inactive = higher.

How the values were obtained:
Experiment in all cases: NCI tumour cell line growth inhibition, 48 h
[1] = tested on: HT-29
[2] = tested on: CCRF-CEM
[3] = tested on: HCT-116
[4] = tested on: Malme-3M
[5] = tested on: SF-268
[6] = tested on: SN12C
[7] = tested on: SNB-75
[8] = tested on: IGROV-1
[9] = tested on: 786-0
[10] = tested on: HCC 2998
[11] = tested on: EKVX
[12] = tested on: M14
[13] = tested on: UACC-257
[14] = tested on: HL-60
[15] = tested on: NCI-H522
[16] = tested on: CAKI-1
[17] = tested on: A549
[18] = tested on: MCF7
[19] = tested on: NCI-H460
[20] = tested on: OVCAR-8
[21] = tested on: SW-620
[22] = tested on: UO-31
[23] = tested on: COLO 205
[24] = tested on: BT-549
[25] = tested on: SK-MEL-2
[26] = tested on: HOP-62
[27] = tested on: ACHN
[28] = tested on: T47D
[29] = tested on: A498
[30] = tested on: PC-3
[31] = tested on: MDA-N
[32] = tested on: RXF 393
[33] = tested on: HOP-92
[34] = tested on: HCT-15
[35] = tested on: OVCAR-3
[36] = tested on: SF-539
[37] = tested on: UACC-62
[38] = tested on: SNB-19
[39] = tested on: TK-10
[40] = tested on: OVCAR-4
[41] = tested on: DU-145
[42] = tested on: MDA-MB-231
[43] = tested on: NCI-H23
[44] = tested on: U-251
[45] = tested on: Hs-578T
[46] = tested on: SF-295
[47] = tested on: OVCAR-5
[48] = tested on: MOLT-4
[49] = tested on: SK-MEL-5
[50] = tested on: KM12
[51] = tested on: MDA-MB-435
[52] = tested on: NCI/ADR-RES
[53] = tested on: SK-MEL-28
[54] = tested on: NCI-H226
[55] = tested on: SK-OV-3
[56] = tested on: K562
[57] = tested on: LOX IMVI
[58] = tested on: RPMI-8226

Cc1[nH]c2ncn3ncnc3c2c1Cc1ccccc1
GI50 [1]: > 100 µM (inactive)
GI50 [2]: > 100 µM (inactive)
GI50 [3]: > 100 µM (inactive)
GI50 [4]: > 100 µM (inactive)
GI50 [5]: > 100 µM (inactive)
GI50 [6]: > 100 µM (inactive)
GI50 [7]: > 100 µM (inactive)
GI50 [8]: 92.7 µM (inactive)
GI50 [9]: > 100 µM (inactive)
GI50 [10]: > 100 µM (inactive)
GI50 [11]: > 100 µM (inactive)
GI50 [12]: > 100 µM (inactive)
GI50 [13]: > 100 µM (inactive)
GI50 [14]: > 100 µM (inactive)
GI50 [15]: > 100 µM (inactive)
GI50 [16]: > 100 µM (inactive)
GI50 [17]: > 100 µM (inactive)
GI50 [18]: > 100 µM (inactive)
GI50 [19]: > 100 µM (inactive)
GI50 [20]: > 100 µM (inactive)
GI50 [21]: > 100 µM (inactive)
GI50 [22]: > 100 µM (inactive)
GI50 [23]: > 100 µM (inactive)
GI50 [24]: > 100 µM (inactive)
GI50 [25]: > 100 µM (inactive)
GI50 [26]: > 100 µM (inactive)
GI50 [27]: > 100 µM (inactive)
GI50 [28]: > 100 µM (inactive)
GI50 [29]: > 100 µM (inactive)
GI50 [30]: > 100 µM (inactive)
GI50 [31]: > 100 µM (inactive)
GI50 [32]: 50 µM (inactive)
GI50 [33]: 54.1 µM (inactive)
GI50 [34]: > 100 µM
GI50 [35]: > 100 µM (inactive)
GI50 [36]: > 100 µM (inactive)
GI50 [37]: > 100 µM (inactive)
GI50 [38]: > 100 µM (inactive)
GI50 [39]: > 100 µM (inactive)
GI50 [40]: > 100 µM (inactive)
GI50 [41]: > 100 µM (inactive)
GI50 [42]: > 100 µM (inactive)
GI50 [43]: 91.6 µM (inactive)
GI50 [44]: > 100 µM (inactive)
GI50 [45]: > 100 µM (inactive)
GI50 [46]: > 100 µM (inactive)
GI50 [47]: > 100 µM (inactive)
GI50 [48]: > 100 µM (inactive)
GI50 [49]: > 100 µM (inactive)
GI50 [50]: > 100 µM (inactive)
GI50 [51]: > 100 µM (inactive)
GI50 [52]: > 100 µM (inactive)
GI50 [53]: > 100 µM (inactive)
GI50 [54]: > 100 µM (inactive)
GI50 [55]: > 100 µM (inactive)

C[C@]12CC[C@@H]3c4ccc(OP(=O)(O)O)cc4CC[C@H]3[C@@H]1CCC2=O
GI50 [1]: 63.1 µM (inactive)
GI50 [2]: 27.6 µM (inactive)
GI50 [3]: 55.1 µM (inactive)
GI50 [4]: > 100 µM (inactive)
GI50 [5]: > 100 µM (inactive)
GI50 [6]: 70.1 µM (inactive)
GI50 [7]: 68.9 µM (inactive)
GI50 [8]: > 100 µM (inactive)
GI50 [9]: > 100 µM (inactive)
GI50 [10]: > 100 µM (inactive)
GI50 [11]: 42.8 µM (inactive)
GI50 [12]: 61.4 µM (inactive)
GI50 [13]: > 100 µM (inactive)
GI50 [14]: 71.4 µM (inactive)
GI50 [15]: 33.4 µM (inactive)
GI50 [16]: > 100 µM (inactive)
GI50 [17]: 90.2 µM (inactive)
GI50 [18]: > 100 µM (inactive)
GI50 [19]: 91.6 µM (inactive)
GI50 [56]: 46.3 µM (inactive)
GI50 [20]: > 100 µM (inactive)
GI50 [21]: 63.7 µM (inactive)
GI50 [22]: 80.7 µM (inactive)
GI50 [57]: 95.9 µM (inactive)
GI50 [23]: > 100 µM (inactive)
GI50 [24]: 67.6 µM (inactive)
GI50 [25]: 62.5 µM (inactive)
GI50 [26]: > 100 µM (inactive)
GI50 [27]: > 100 µM (inactive)
GI50 [28]: 39.6 µM (inactive)
GI50 [29]: > 100 µM (inactive)
GI50 [30]: 62.4 µM (inactive)
GI50 [31]: 58.5 µM (inactive)
GI50 [32]: 56.9 µM (inactive)
GI50 [33]: > 100 µM (inactive)
GI50 [34]: > 100 µM
GI50 [35]: 62.8 µM (inactive)
GI50 [36]: 81.8 µM (inactive)
GI50 [58]: 44.4 µM (inactive)
GI50 [37]: 66.2 µM (inactive)
GI50 [38]: > 100 µM (inactive)
GI50 [39]: > 100 µM (inactive)
GI50 [40]: 50.9 µM (inactive)
GI50 [41]: > 100 µM (inactive)
GI50 [42]: 80.7 µM (inactive)
GI50 [43]: 63.1 µM (inactive)
GI50 [44]: 93.3 µM (inactive)
GI50 [45]: 41.3 µM (inactive)
GI50 [46]: 71.8 µM (inactive)
GI50 [47]: > 100 µM (inactive)
GI50 [48]: 54 µM (inactive)
GI50 [49]: 28.4 µM (inactive)
GI50 [50]: 54.5 µM (inactive)
GI50 [51]: 67.5 µM (inactive)
GI50 [52]: 56 µM (inactive)
GI50 [53]: > 100 µM (inactive)
GI50 [55]: > 100 µM (inactive)
